According to patent US11918618B2, “Composition for preventing or treating gastritis or peptic ulcer” (CHONG KUN DANG PHARMACEUTICAL CORP., priority 2017, dated 2024):

Experiments:
[1] = reported in the literature; cited from earlier work
stomach ulcer = assay: Inhibition of Indomethacin-induced stomach ulcer in rats (stomach ulcer index); assay type: in vivo; settings: rat, single oral dose 75.0 mg/kg, Indomethacin 80 mg/kg
Experimental: In order to confirm the inhibition rate of stomach ulcer of the Example 1 and Comparative examples 1 to 6, the test was carried out according to the following method. Test animals were randomly assigned to 10 animals of specific pathogen free (SPF) 7-week-old rat males per group so that the average body weight was maximally uniformly distributed throughout the adaptation period (7 days). […] All animals were fasted 48 hours before administration of test substances and control drug, and then each of test substances and control drug was orally administered, and Indomethacin previously prepared 30 minutes after administration was orally administered at a dose of 80 mg/kg. After anesthetizing with diethyl ether 5 hours after administration of Indomethacin, stomach was removed and the gastric mucosa was photographed with a digital camera. The area of the damaged site was analyzed using ImageJ software (NIH, Bethesda, Md.). The stomach ulcer index was measured according to the following Equation 1. Stomach ulcer index (%)=(damage area/total area)×100 [Equation 1] The stomach ulcer test by volume for the Example 1 was tested by the method as Experimental example 1, and was shown in Table 5.

stomach mucus = assay: Effect of improving stomach mucosal amount (alcian blue binding) in Indomethacin-treated rats; assay type: in vivo; settings: rat, oral dose 100.0 mg/kg, Indomethacin 80 mg/kg
Experimental: In order to confirm the effect of improving the mucosal amount of the Example 1 and Comparative examples 1 to 6, the test was carried out according to the following method. Test animals were randomly assigned to 10 animals of specific pathogen free (SPF) 7-week-old rat males per group so that the average body weight was maximally uniformly distributed throughout the adaptation period (7 days). All animals were fasted 48 hours before administration and then test substances and control drug were orally administered, and 30 minutes after administration, Indomethacin 80 mg/kg was orally administered. […] After mixing the extract solution with diethyl ether in the same amount and shaking, it was centrifuged at 3,500 rpm for 10 minutes and for the supernatant, the absorbance was measured at 605 nm. 0.1% w/v alcian blue 8 GX solution was diluted with 0.25 M sucrose solution and standard solution was prepared and thereby a standard curve was fabricated and the measured absorbance value was converted into the amount of alcian blue combined with the stomach mucus, and the result was shown in Table 3.

PGE2 = assay: Improvement of PGE2 in serum (PGE2 ELISA Kit) of Indomethacin-treated rats; assay type: in vivo; settings: rat serum, oral dose 100.0 mg/kg
Source text: Since the recovery mechanism of stomach mucous membrane blood stream and epithelial cells is maintained and the action of preserving cells of the stomach mucous membrane was shown, when PGE2 in serum is increased, the enhanced improvement of PGE2 affects treatment of gastritis or stomach ulcer. In order to confirm the effect of the Example 1 and Comparative examples 2, 5 to 6 according to the present invention for this improvement of PGE2, for the blood collected in Test example 2, serum was separated according to the protocol provided by the manufacturer of PGE2 ELISA Kit and then sampling treatment was carried out, and then it was analyzed, and the result was shown in the following Table 4.

O=C/C=C/c1ccccc1 [cinnamic aldehyde]
stability at the room temperature [1]: low

CNC(=C[N+](=O)[O-])NCCSCc1ccc(CN(C)C)o1 [Comparative example 4, Ranitidine]
Inhibition rate (%), compared to the induced group (stomach ulcer): 97.0%
Stomach ulcer index (%) (stomach ulcer): 0.20 ± 0.29 %

O=C(NC(Cc1cc(=O)[nH]c2ccccc12)C(=O)O)c1ccc(Cl)cc1 (stereo not shown) [Comparative example 5, Rebamipide]
Mucosal amount (stomach mucus): 10.6 ± 3.7 µg/L
Mucosal amount, % compared to the normal group (stomach mucus): 94.6%
PGE2 (PGE2): 1.82 ± 0.14 ng/mL
PGE2, % compared to the normal group (PGE2; normal group 100, induced group 0): 77.7%
